Results on 18 molecules are retold here after patent US7709471B2, “Compounds” (AstraZeneca AB, priority 2006, dated 2010).

Structures are written as SMILES.

For orientation: IC50 means the concentration that gives 50% inhibition.

The subject of this assay is human colon tumour cell line HT29. The assay can be described thus: Cellular Assay (phosphohistone H3 Ser10 mitotic marker, HT29). Type of assay: cell-based. The following applies: HT-29, 24 h, HT29 cells, read-out: IC50 (cellular assay, phosphohistone H3).

Description: Chromosome condensation in mitosis is accompanied by phosphorylation of histone H3 on serine 10.
After 24 hours, cells were fixed in 3.7% (v/v) formaldehyde then permeabilised and blocked for 10 minutes in 100 μl 0.5% (v/v) Triton X-100, 1% (w/v) bovine serum albumin (BSA) in phosphate buffered saline (PBS). […] The raw assay data were analysed by non-linear regression analysis and used to determine an IC50 value for each compound.

As to `COc1cc(C(=O)NC2CCC(N(C)C)CC2)ccc1Nc1ncc2c(n1)N(C1CCCC1)CC(C)(C)C(=O)N2C` (stereo not drawn) [Example 363, 4-[(2-cyclopentyl-4,4,6-trimethyl-5-oxo-2,6,9,11-tetrazabicyclo[5.4.0]undeca-7,9,11-trien-10-yl)amino]-N-(4-dimethylaminocyclohexyl)-3-methoxy-benzamide], the IC50 is < 300 nM. The figure for `CCC1(CC)CN(C(C)C)c2nc(Nc3ccc(C(=O)NC4CCN(C)CC4)cc3OC)ncc2N(C)C1=O` [Example 304, 4-[(4,4-diethyl-6-methyl-5-oxo-2-propan-2-yl-2,6,9,11-tetrazabicyclo[5.4.0]undeca-7,9,11-trien-10-yl)amino]-3-methoxy-N-(1-methyl-4-piperidyl)benzamide] is < 300 nM; for `CCN1CC[C@@H](NC(=O)c2ccc(Nc3ncc4c(n3)N(C3CCCC3)CC(C)(C)C(=O)N4C)c(OC)c2)C1` [Example 369, 4-[(2-cyclopentyl-4,4,6-trimethyl-5-oxo-2,6,9,11-tetrazabicyclo[5.4.0]undeca-7,9,11-trien-10-yl)amino]-N-[(3R)-1-ethylpyrrolidin-3-yl]-3-methoxy-benzamide] it is < 300 nM. Consider `COc1cc(C(=O)NCCN(C)C)ccc1Nc1ncc2c(n1)N(C(C)C)CC(C)(C)C(=O)N2C` [Example 302, N-(2-dimethylaminoethyl)-3-methoxy-4-[(4,4,6-trimethyl-5-oxo-2-propan-2-yl-2,6,9,11-tetrazabicyclo[5.4.0]undeca-7,9,11-trien-10-yl)amino]benzamide], for which the IC50 was < 1000 nM. The result for `CN1C(=O)CCN(C2CCCCC2)c2nc(Nc3ccc(C(=O)NC4C[C@H]5CCC[C@@H](C4)N5C)cc3F)ncc21` (stereo partly drawn) [Example 417, 4-[(2-cyclohexyl-6-methyl-5-oxo-2,6,9,11-tetrazabicyclo[5.4.0]undeca-7,9,11-trien-10-yl)amino]-3-fluoro-N-[(1S,5R)-9-methyl-9-azabicyclo[3.3.1]non-7-yl]benzamide] reads < 300 nM. `COc1cc(C(=O)NC2CCC(N3CCC3)CC2)ccc1Nc1ncc2c(n1)N(C1CCCC1)CC(C)(C)C(=O)N2C` (stereo not drawn) [Example 374, N-[4-(azetidin-1-yl)cyclohexyl]-4-[(2-cyclopentyl-4,4,6-trimethyl-5-oxo-2,6,9,11-tetrazabicyclo[5.4.0]undeca-7,9,11-trien-10-yl)amino]-3-methoxy-benzamide]: the IC50 is < 300 nM. The result for `CN1C(=O)CCN(C2CCCC2)c2nc(Nc3cccc(C(N)=O)c3)ncc21` [Example 167, 3-[(6-cyclopentyl-2-methyl-3-oxo-2,6,8,10-tetrazabicyclo[5.4.0]undeca-8,10,12-trien-9-yl)amino]benzamide] reads < 30000 nM; that for `COc1cc(C(=O)NC2CCC(N(C)C)CC2)c(F)cc1Nc1ncc2c(n1)N(C1CCCC1)CC(C)(C)C(=O)N2C` (stereo not drawn) [Example 372, 4-[(2-cyclopentyl-4,4,6-trimethyl-5-oxo-2,6,9,11-tetrazabicyclo[5.4.0]undeca-7,9,11-trien-10-yl)amino]-N-(4-dimethylaminocyclohexyl)-2-fluoro-5-methoxy-benzamide], < 300 nM; that for `COc1cc(C(=O)NCC(C)(C)CN(C)C)ccc1Nc1ncc2c(n1)N(C1CCCC1)CC(C)(C)C(=O)N2C` [Example 351, 4-[(2-cyclopentyl-4,4,6-trimethyl-5-oxo-2,6,9,11-tetrazabicyclo[5.4.0]undeca-7,9,11-trien-10-yl)amino]-N-(3-dimethylamino-2,2-dimethyl-propyl)-3-methoxy-benzamide], < 300 nM. The result for `CCN1CCC(NC(=O)c2ccc(Nc3ncc4c(n3)N(C3CCCC3)CC(C)(C)C(=O)N4C)c(OC)c2)CC1` [Example 350, 4-[(2-cyclopentyl-4,4,6-trimethyl-5-oxo-2,6,9,11-tetrazabicyclo[5.4.0]undeca-7,9,11-trien-10-yl)amino]-N-(1-ethyl-4-piperidyl)-3-methoxy-benzamide] reads < 300 nM; that for `COc1cc(C(=O)N[C@@H]2CCN(C)C2)c(F)cc1Nc1ncc2c(n1)N(C1CCCC1)CC1(CC1)C(=O)N2C` [Example 399, 4-(9′-cyclopentyl-5′-methyl-6′-oxo-5′,6′,8′,9′-tetrahydrospiro[cyclopropane-1,7′-pyrimido[5,4-b][1,4]diazepine]-2′-ylamino)-2-fluoro-5-methoxy-N-[(3R)-1-methylpyrrolidin-3-yl]benzamide], < 300 nM. The figure for `CC(C)N1CC(C)(C)C(=O)N(C)c2cnc(Nc3cc(F)c(C(=O)NC4CCC(N(C)C)CC4)cc3Cl)nc21` (stereo not drawn) [Example 291, 5-chloro-N-(4-dimethylaminocyclohexyl)-2-fluoro-4-[(4,4,6-trimethyl-5-oxo-2-propan-2-yl-2,6,9,11-tetrazabicyclo[5.4.0]undeca-7,9,11-trien-10-yl)amino]benzamide] is < 300 nM. With `CN1CCC(NC(=O)c2cc(Cl)c(Nc3ncc4c(n3)N(C3CCCC3)CCC(=O)N4C)c(Cl)c2F)CC1` [Example 330, 3,5-dichloro-4-[(2-cyclopentyl-6-methyl-5-oxo-2,6,9,11-tetrazabicyclo[5.4.0]undeca-7,9,11-trien-10-yl)amino]-2-fluoro-N-(1-methyl-4-piperidyl)benzamide], the IC50 was < 1000 nM. Regarding `CN1CC[C@@H](NC(=O)c2cc(F)c(Nc3ncc4c(n3)N(C3CCCC3)CCC(=O)N4C)cc2F)C1` [Example 334, 4-[(2-cyclopentyl-6-methyl-5-oxo-2,6,9,11-tetrazabicyclo[5.4.0]undeca-7,9,11-trien-10-yl)amino]-2,5-difluoro-N-[(3R)-1-methylpyrrolidin-3-yl]benzamide], the IC50 was < 300 nM. The figure for `CCOc1cc(C(=O)N[C@@H]2CCN(C)C2)ccc1Nc1ncc2c(n1)N(C(C)C)CC(C)(C)C(=O)N2C` [Example 293, 3-ethoxy-N-[(3R)-1-methylpyrrolidin-3-yl]-4-[(4,4,6-trimethyl-5-oxo-2-propan-2-yl-2,6,9,11-tetrazabicyclo[5.4.0]undeca-7,9,11-trien-10-yl)amino]benzamide] is < 1000 nM. For the molecule `COc1cc(C(=O)NC2CCN(C)C3CCCCC23)ccc1Nc1ncc2c(n1)N(C1CCCC1)CCC(=O)N2C` (single isomer, unassigned) [Example 342, 4-[(2-cyclopentyl-6-methyl-5-oxo-2,6,9,11-tetrazabicyclo[5.4.0]undeca-7,9,11-trien-10-yl)amino]-3-methoxy-N-(1-methyl-3,4,4a,5,6,7,8,8a-octahydro-2H-quinolin-4-yl)benzamide], the IC50 is < 300 nM. `CN1C(=O)C2(CC2)CN(C2CCCC2)c2nc(Nc3cc(F)c(C(=O)NC4CCC(N(C)C)CC4)cc3Cl)ncc21` (stereo not drawn) [Example 394, 5-chloro-4-(9′-cyclopentyl-5′-methyl-6′-oxo-5′,6′,8′,9′-tetrahydrospiro[cyclopropane-1,7′-pyrimido[5,4-b][1,4]diazepine]-2′-ylamino)-N-(4-dimethylaminocyclohexyl)-2-fluoro-benzamide]: the IC50 is < 300 nM.

In the case of `CN1CCC(NC(=O)c2cc(F)c(Nc3ncc4c(n3)N(C3CCCCC3)CC3(CC3)C(=O)N4C)cc2F)CC1` [Example 436, 4-(9′-cyclohexyl-5′-methyl-6′-oxo-5′,6′,8′,9′-tetrahydrospiro[cyclopropane-1,7′-pyrimido[5,4-b][1,4]diazepine]-2′-ylamino)-2,5-difluoro-N-(1-methyl-4-piperidyl)benzamide], the IC50 was < 300 nM.
